Source: patent US10448639B2, “Fungicidal pyrazoles” (FMC CORPORATION, priority 2009, dated 2019)
Marks after values point to notes of the source that are not given here.

Experiments:
[1] = test system: Puccinia recondita f. sp. tritici; assay: Test I: wheat leaf rust, preventive spray on wheat seedlings, visual disease rating; conditions: wheat leaf rust; for Test I rating (% disease control): 100 = 100% disease control
From the text: (§1) General protocol for preparing test suspensions for Tests A-J: the test compounds were first dissolved in acetone in an amount equal to 3% of the final volume and then suspended at the desired concentration (in ppm) in acetone and purified water (50/50 mix by volume) containing 250 ppm of the surfactant Trem® 014 (polyhydric alcohol esters). The resulting test suspensions were then used in Tests A-J. Spraying a 200 ppm test suspension to the point of run-off on the test plants was the equivalent of a rate of 500 g/ha. Unless otherwise indicated, the rating values indicate a 200 ppm test suspension was used. (An asterisk “*” next to the rating value indicates a 40 ppm test suspension was used.)
The test suspension was sprayed to the point of run-off on wheat seedlings. The following day the seedlings were inoculated with a spore suspension of Puccinia recondita f. sp. tritici (the causal agent of wheat leaf rust) and incubated in a saturated atmosphere at 20° C. for 24 h, and then moved to a growth chamber at 20° C. for 7 days, after which time visual disease ratings were made
A dash (-) indicates no test results.

Botrytis cinerea = assay: Test B: tomato Botrytis, preventive spray on tomato seedlings, visual disease rating; conditions: tomato Botrytis; for Test B rating (% disease control): 100 = 100% disease control
Septoria tritici = assay: Test G: wheat leaf blotch, preventive spray on wheat seedlings, visual disease rating; conditions: wheat leaf blotch; for Test G rating (% disease control): 100 = 100% disease control
Alternaria solani = assay: Test C: tomato early blight, preventive spray on tomato seedlings, visual disease rating; conditions: tomato early blight; for Test C rating (% disease control): 100 = 100% disease control
[2] = test system: Erysiphe graminis f sp. tritici; assay: Test J: wheat powdery mildew, preventive spray on wheat seedlings, visual disease rating; conditions: wheat powdery mildew; for Test J rating (% disease control): 100 = 100% disease control
From the text: as §1
The test suspension was sprayed to the point of run-off on wheat seedlings. The following day the seedlings were inoculated with a spore dust of Erysiphe graminis f sp. tritici, (the causal agent of wheat powdery mildew) and incubated in a growth chamber at 20° C. for 8 days, after which time visual disease ratings were made.

Septoria nodorum = assay: Test F: Septoria glume blotch, preventive spray on wheat seedlings, visual disease rating; conditions: for Test F rating (% disease control): 100 = 100% disease control
[3] = test system: Puccinia recondita f. sp. tritici; assay: Test H: wheat leaf rust, curative spray on inoculated wheat seedlings, visual disease rating; conditions: wheat leaf rust; for Test H rating (% disease control): 100 = 100% disease control
[4] = preventive spray, 0 = no control
[5] = Septoria glume blotch on wheat, preventive spray, 0 = no control
[6] = preventive, 0 = no control relative to controls
[7] = 0 = no control relative to controls
[8] = Septoria glume blotch, 0 = no control relative to controls
[9] = curative, 0 = no control relative to controls
[10] = preventive spray, rating marked with asterisk (different test condition, key not given)

Compound	Test I rating (% disease control) [1, 4] [%]	Test B rating (% disease control) (Botrytis cinerea; [4]) [%]	Test G rating (% disease control) (Septoria tritici; [4]) [%]	Test C rating (% disease control) (Alternaria solani; [4]) [%]	Test J rating (% disease control) [2, 4] [%]	Test F rating (% disease control) (Septoria nodorum; [5]) [%]	Test H rating (% disease control) ([3]; curative spray, 0 = no control) [%]	Test I rating (% disease control) [1, 6] [%]	Test B rating (% disease control) (Botrytis cinerea; [7]) [%]	Test G rating (% disease control) (Septoria tritici; [7]) [%]	Test C rating (% disease control) (Alternaria solani; [7]) [%]	Test J rating (% disease control) [2, 7] [%]	Test F rating (% disease control) (Septoria nodorum; [8]) [%]	Test H rating (% disease control) [3, 9] [%]	also measured
Cc1nn(C)c(Nc2ccc(F)cc2Cl)c1-c1c(F)cc(C#N)cc1F [compound 112]	100	100	99	98	100	99	53	–	–	–	–	–	–	–	–
COc1cc(F)ccc1-c1c(C)nn(C)c1Oc1c(F)cc(C#N)cc1F [compound 89]	0	99	99	0	97	0	0	–	–	–	–	–	–	–	–
Cc1nn(C)c(Oc2c(F)cc(C#N)cc2F)c1-c1ccccc1Cl [compound 271]	–	–	–	–	–	–	–	99	100	100	99	98	99	0	–
Cc1nn(C)c(Nc2c(F)cc(C#N)cc2F)c1-c1c(F)cccc1F [compound 301]	–	–	–	–	–	–	–	98	99	100	87	99	87	0	–
COc1cc(F)c(-c2c(C)nn(C)c2Oc2ccc(Cl)c(OC)c2)c(F)c1 [compound 211]	–	–	–	–	–	–	–	17	77	99	0	96	0	0	–
Cc1nn(C)c(Nc2cnc(Cl)nc2)c1-c1ccc(F)cc1Cl [compound 268]	–	–	–	–	–	–	–	74	95	99	93	0	0	0	–
COc1ccc(Nc2c(-c3c(F)cc(C#N)cc3F)c(C)nn2C)cc1 [compound 126]	94	99	100	96	0	60	0	–	–	–	–	–	–	–	–
COc1cc(F)c(-c2c(C)nn(C)c2Oc2ccc(Cl)cc2Cl)c(F)c1 [compound 40]	99	99	94	0	99	0	92	–	–	–	–	–	–	–	–
Cc1nn(C)c(Nc2cccc(Cl)c2)c1-c1c(F)cc(C#N)cc1F [compound 115]	91	99	100	0	0	0	0	–	–	–	–	–	–	–	–
Cc1nn(C)c(Oc2ccc(C#N)cc2F)c1-c1c(F)cc(F)cc1F [compound 96]	99	99	100	99	100	99	9	–	–	–	–	–	–	–	–
COc1cc(OC)c(Nc2c(-c3c(F)cc(F)cc3F)c(C)nn2C)cc1Cl [compound 100]	41	38	48	0	0	0	0	–	–	–	–	–	–	–	–
COc1cc(F)c(-c2c(C)nn(C)c2Oc2ccc(Br)c(F)c2)c(F)c1 [compound 153]	–	–	–	–	–	–	–	96	100	100	0	98	73	0	–
COc1cccc(Oc2c(-c3c(F)cc(OC)cc3F)c(C)nn2C)c1 [compound 221]	–	–	–	–	–	–	–	99	98	100	94	100	82	17	–
Cc1nn(C)c(Nc2c(F)cccc2F)c1-c1ccc(Cl)cc1 [compound 33]	18	0	95	0	0	0	0	–	–	–	–	–	–	–	–
COc1ccc(-c2c(C)nn(C)c2Nc2c(F)ccc(F)c2F)c(Cl)c1 [compound 174]	–	–	–	–	–	–	–	97	100	96	99	99	0	0	–
COc1cc(F)c(-c2c(C)nn(C)c2Oc2ccc(Cl)cc2)c(F)c1 [compound 206]	–	–	–	–	–	–	–	99	99	99	99	100	84	41	–
Cc1nn(C)c(Oc2ccc(C#N)c(C#N)c2)c1-c1c(F)cc(F)cc1F [compound 169]	–	–	–	–	–	–	–	0	24	85	0	0	0	0	–
COc1cc(F)c(-c2c(C)nn(C)c2Nc2ccc(C)cc2)c(F)c1 [compound 50]	98	99	100	57	99	0	0	–	–	–	–	–	–	–	–
Cc1nn(C)c(Nc2ccc(Cl)nc2Cl)c1-c1ccc(F)cc1Cl [compound 107]	–	–	–	–	–	–	–	–	–	–	–	–	–	–	Test I rating (% disease control), value marked * [1, 10]: 24* %; Test B rating (% disease control), value marked * (Botrytis cinerea; [10]): 99* %; Test G rating (% disease control), value marked * (Septoria tritici; [10]): 99* %; Test C rating (% disease control), value marked * (Alternaria solani; [10]): 0* %; Test J rating (% disease control), value marked * [2, 10]: 0* %; Test F rating (% disease control), value marked * (Septoria nodorum; Septoria glume blotch, preventive spray, rating marked with asterisk (different test condition, key not given)): 0* %; Test H rating (% disease control), value marked * ([3]; curative spray, rating marked with asterisk (different test condition, key not given)): 8* %
Cc1nn(C)c(Nc2cc(F)ccc2F)c1-c1c(F)cccc1F [compound 197]	–	–	–	–	–	–	–	79	97	99	0	96	95	0	–
Cc1nn(C)c(Oc2ccc(Br)c(F)c2)c1-c1c(F)cc(F)cc1F [compound 130]	19	97	99	0	0	0	0	–	–	–	–	–	–	–	–
